Experimental data: patent US9611275B2 (priority 2012, dated 2017)
pEC50, pKi: −log10 of the molar value. Where two headings read alike, the source gives them in different places.

Assays:
LLC-PK1 cells = assay: Assay for determination of apparent permeability (Papp), bi-directional transport; settings: comparative compounds described in PCT/US11/059668; LLC-PK1 cells
human O-GlcNAcase = human O-GlcNAcase (Homo sapiens (Human), UniProt O60502); assay: biochemical; format: biochemical; settings: read-out: OGA KI
Chain of human O-GlcNAcase (O60502 whole entry): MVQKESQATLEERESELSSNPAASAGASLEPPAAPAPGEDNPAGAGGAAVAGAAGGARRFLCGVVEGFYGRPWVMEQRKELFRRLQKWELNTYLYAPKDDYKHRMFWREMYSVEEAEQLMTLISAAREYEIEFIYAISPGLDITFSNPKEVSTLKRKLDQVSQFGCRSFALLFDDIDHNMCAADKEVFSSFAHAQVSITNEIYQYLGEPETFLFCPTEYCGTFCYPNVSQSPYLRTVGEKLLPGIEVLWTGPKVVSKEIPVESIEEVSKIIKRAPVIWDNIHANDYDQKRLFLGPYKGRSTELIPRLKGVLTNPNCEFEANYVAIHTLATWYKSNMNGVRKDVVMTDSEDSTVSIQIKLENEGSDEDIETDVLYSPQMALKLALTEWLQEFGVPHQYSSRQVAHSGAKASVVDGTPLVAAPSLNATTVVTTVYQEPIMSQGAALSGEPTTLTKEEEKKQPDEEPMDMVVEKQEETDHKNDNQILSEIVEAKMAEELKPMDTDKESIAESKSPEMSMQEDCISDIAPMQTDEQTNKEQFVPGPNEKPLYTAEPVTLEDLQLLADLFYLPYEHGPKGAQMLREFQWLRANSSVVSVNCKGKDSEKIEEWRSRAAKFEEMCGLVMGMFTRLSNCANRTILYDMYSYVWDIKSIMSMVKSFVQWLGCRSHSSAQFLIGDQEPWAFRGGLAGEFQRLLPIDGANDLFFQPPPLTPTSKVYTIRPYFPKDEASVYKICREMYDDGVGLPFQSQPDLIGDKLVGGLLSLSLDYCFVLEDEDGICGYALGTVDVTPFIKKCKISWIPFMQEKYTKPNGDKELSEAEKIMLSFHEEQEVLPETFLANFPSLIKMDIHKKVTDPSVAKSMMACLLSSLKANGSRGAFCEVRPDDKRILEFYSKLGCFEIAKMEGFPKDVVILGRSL

[1] = Assay for determination of apparent permeability (Papp), bi-directional transport; settings: pig, LLC-PK1
[2] = target: O-GlcNAcase in rat PC-12 cells (Rattus norvegicus (Rat), UniProt Q8VIJ5); assay: cell-based; settings: rat PC-12 cells, 24 hours treatment, increase in O-GlcNAcylated protein; read-out: Cell based ELISA EC50
Chain of O-GlcNAcase in rat PC-12 cells (Q8VIJ5 whole entry): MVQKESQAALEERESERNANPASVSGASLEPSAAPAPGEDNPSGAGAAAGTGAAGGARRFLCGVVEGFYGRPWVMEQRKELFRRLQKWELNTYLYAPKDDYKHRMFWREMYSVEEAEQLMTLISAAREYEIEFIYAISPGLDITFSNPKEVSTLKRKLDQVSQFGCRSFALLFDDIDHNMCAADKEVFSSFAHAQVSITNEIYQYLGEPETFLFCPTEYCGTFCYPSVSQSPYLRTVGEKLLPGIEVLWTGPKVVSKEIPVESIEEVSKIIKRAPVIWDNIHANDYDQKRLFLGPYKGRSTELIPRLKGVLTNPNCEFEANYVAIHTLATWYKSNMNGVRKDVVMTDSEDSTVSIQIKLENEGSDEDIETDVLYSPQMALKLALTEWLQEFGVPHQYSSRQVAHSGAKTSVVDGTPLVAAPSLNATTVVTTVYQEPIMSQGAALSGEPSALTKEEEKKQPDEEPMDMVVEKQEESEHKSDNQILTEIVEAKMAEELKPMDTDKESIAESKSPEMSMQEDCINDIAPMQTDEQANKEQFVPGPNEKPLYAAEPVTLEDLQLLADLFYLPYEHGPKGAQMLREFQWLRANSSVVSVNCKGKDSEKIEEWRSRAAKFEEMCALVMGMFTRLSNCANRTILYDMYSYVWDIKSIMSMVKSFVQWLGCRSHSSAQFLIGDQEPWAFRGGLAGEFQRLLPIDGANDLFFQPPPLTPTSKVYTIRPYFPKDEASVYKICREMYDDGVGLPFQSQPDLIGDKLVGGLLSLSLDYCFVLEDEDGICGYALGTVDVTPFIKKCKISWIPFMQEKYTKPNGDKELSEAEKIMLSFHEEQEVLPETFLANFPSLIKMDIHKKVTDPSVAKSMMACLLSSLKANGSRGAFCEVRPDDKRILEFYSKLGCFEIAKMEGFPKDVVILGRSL
From the text: Assay for Determination of Cellular Activity for Compounds that Inhibit O-GlcNAcase Activity
Inhibition of O-GlcNAcase, which removes O-GlcNAc from cellular proteins, results in an increase in the level of O-GlcNAcylated protein in cells. An increase in O-GlcNAcylated protein can be measured by an antibody, such as RL-2, that binds to O-GlcNAcylated protein. The amount of O-GlcNAcylated protein:RL2 antibody interaction can be measured by enzyme linked immunosorbant assay (ELISA) procedures.
A variety of tissue culture cell lines, expressing endogenous levels of O-GlcNAcase, can be utilized; examples include rat PC-12, and human U-87, or SK-N-SH cells. In this assay, rat PC-12 cells were plated in 96-well plates with approximately 10,000 cells/well. Compounds to be tested were dissolved in DMSO, either 2 or 10 mM stock solution, and then diluted with DMSO and water in a two-step process using a Tecan workstation. […] To prepare a cell lysate, the media from compound treated cells was removed, the cells were washed once with phosphate buffered saline (PBS) and then lysed for 5 minutes at room temperature in 50 μL of Phosphosafe reagent (Novagen Inc, Madison, Wis.) with protease inhibitors and PMSF. The cell lysate was collected and transferred to a new plate, which was then either coated to assay plates directly or frozen −80° C. until used in the ELISA procedure. If desired, the total protein concentration of samples is determined using 20 μL of the sample using the BCA method.
The plate was sealed and incubated at 37° C. for 2 hr with gentle shaking. The wells were then washed 3-times with 300 μl/well wash buffer. […] The plate was incubated for 60 min at 37° C. with gentle shaking. Each well was then washed 3-times with 300 μl/well wash buffer. The detection reagent was added, 100 μL/well of Amplex Ultra RED reagent (prepared by adding 30 μL of 10 mM Amplex Ultra Red stock solution to 10 ml PBS with 18 μL 3% hydrogen peroxide, H2O2). The detection reaction was incubated for 15 minutes at room temperature and then read with excitation at 530 nm and emission at 590 nm.

[3] = purified human O-GlcNAcase 0.7 nM, pH 7.0, room temperature, Cheng-Prusoff
[4] = comparative compounds described in PCT/US11/059668

Structure (SMILES) | Papp (X10-6 cm/sec) (LLC-PK1 cells) | pKi (human O-GlcNAcase) | Papp at 3 h, 1 μM [1] | pKi (human O-GlcNAcase; [3]) | pEC50 [2] | pKi (human O-GlcNAcase; [4])
CO[C@@H](C)[C@H]1O[C@@H]2SC(N(C)C)=N[C@@H]2[C@@H](O)[C@@H]1O [Example 11, (3aR,5S,6S,7R,7aR)-2-(dimethylamino)-5-((S)-1-methoxyethyl)-5,6,7,7a-tetrahydro-3aH-pyrano[3,2-d]thiazole-6,7-diol] | 1.6 X10-6 cm/sec |  |  |  |  | 
CN(C)C1=N[C@@H]2[C@@H](O)[C@H](O)[C@@H]([C@H](OCc3ccccc3F)C(F)(F)F)O[C@@H]2S1 [Example 62, (3aR,5S,6S,7R,7aR)-2-(dimethylamino)-5-((S)-2,2,2-trifluoro-1-(2-fluorobenzyloxy)ethyl)-5,6,7,7a-tetrahydro-3aH-pyrano[3,2-d]thiazole-6,7-diol] | 1.7 X10-6 cm/sec | 9.02 | 31.1 ×10⁻⁶ cm/s |  |  | 
CCCO[C@H]([C@H]1O[C@@H]2SC(NC)=N[C@@H]2[C@@H](O)[C@@H]1O)C(F)(F)F [Example 79, (3aR,5S,6S,7R,7aR)-2-(methylamino)-5-((R)-2,2,2-trifluoro-1-propoxyethyl)-5,6,7,7a-tetrahydro-3aH-pyrano[3,2-d]thiazole-6,7-diol] |  |  | 20.4 ×10⁻⁶ cm/s | 8.42 | 6.76 | 
CNC1=N[C@@H]2[C@@H](O)[C@H](O)[C@@H]([C@@H](OCc3ccc(F)cc3)C(F)(F)F)O[C@@H]2S1 [Example 89, (3aR,5S,6S,7R,7aR)-2-(methylamino)-5-((R)-2,2,2-trifluoro-1-(4-fluorobenzyloxy)ethyl)-5,6,7,7a-tetrahydro-3aH-pyrano[3,2-d]thiazole-6,7-diol] |  |  | 25.4 ×10⁻⁶ cm/s | 8.84 | 7.24 | 
CNC1=N[C@@H]2[C@@H](O)[C@H](O)[C@@H]([C@@H](OCc3ccc(Cc4ccccc4)cc3)C(F)(F)F)O[C@@H]2S1 [Example 95, (3aR,5S,6S,7R,7aR)-5-((R)-1-(4-benzylbenzyloxy)-2,2,2-trifluoroethyl)-2-(methylamino)-5,6,7,7a-tetrahydro-3aH-pyrano[3,2-d]thiazole-6,7-diol] | <1.0 X10-6 cm/sec |  |  |  |  | 9.80
CNC1=N[C@@H]2[C@@H](O)[C@H](O)[C@@H]([C@H](C)OC)O[C@@H]2S1 [Example 111, (3aR,5S,6S,7R,7aR)-5-((S)-1-methoxyethyl)-2-(methylamino)-5,6,7,7a-tetrahydro-3aH-pyrano[3,2-d]thiazole-6,7-diol] | 2.7 X10-6 cm/sec |  |  |  |  | 8.37
